Test results taken from PubChem BioAssay AID256 (DTP/NCI, 2004).
Values joined by “and” are separate entries in the source; they are usually repeats but may differ in a detail not shown here. Identical values can stand only once. Toxic doses and inconclusive results are not listed. Rule for the calls: active = survival T/C of 150% or more; inactive = T/C below 125% in these data.

System: CD2F1 mice, L1210 leukemia ip, survival T/C
Assay: NCI In Vivo Anticancer Drug Screen. Data for tumor model L1210 Leukemia (intraperitoneal) in CD2F1 (CDF1) mice
Conditions: higher = longer survival
Method in brief: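 Antitumor effect is scored in animals hosting a serially transplanted tumor. Values compare compound-dosed animals against vehicle-only controls as a simple quotient.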

[1] = endpoint: mean survival time, dose: 100.0 mg/kg/injection, schedule: Q01DX009 (ip), vehicle: saline with Tween-80
[2] = endpoint: mean survival time, dose: 100.0 mg/kg/injection, schedule: Q04DX003 (ip), vehicle: saline with Tween-80
[3] = endpoint: mean survival time, dose: 200.0 mg/kg/injection, schedule: Q01DX009 (ip), vehicle: saline with Tween-80
[4] = endpoint: mean survival time, dose: 200.0 mg/kg/injection, schedule: Q04DX003 (ip), vehicle: saline with Tween-80
[5] = endpoint: mean survival time, dose: 400.0 mg/kg/injection, schedule: Q01DX009 (ip), vehicle: saline with Tween-80
[6] = endpoint: mean survival time, dose: 400.0 mg/kg/injection, schedule: Q04DX003 (ip), vehicle: saline with Tween-80
[7] = endpoint: mean survival time, dose: 100.0 mg/kg/injection, schedule: Q01DX001 (ip), vehicle: saline
[8] = endpoint: mean survival time, dose: 200.0 mg/kg/injection, schedule: Q01DX001 (ip), vehicle: saline
[9] = endpoint: mean survival time, dose: 400.0 mg/kg/injection, schedule: Q01DX001 (ip), vehicle: saline
[10] = endpoint: mean survival time, dose: 50.0 mg/kg/injection, schedule: Q01DX009 (ip), vehicle: saline with Tween-80
[11] = endpoint: mean survival time, dose: 100.0 mg/kg/injection, schedule: Q04DX002 (ip), vehicle: saline with Tween-80
[12] = endpoint: mean survival time, dose: 200.0 mg/kg/injection, schedule: Q04DX002 (ip), vehicle: saline with Tween-80
[13] = endpoint: mean survival time, dose: 400.0 mg/kg/injection, schedule: Q04DX002 (ip), vehicle: saline with Tween-80
[14] = endpoint: mean survival time, dose: 100.0 mg/kg/injection, schedule: Q01DX001 (ip), vehicle: saline with Tween-80

Measured: T/C

O=c1[nH]c2cc(Cl)ccc2c2ccc(Cl)cc12
inactive: endpoint: mean survival time, dose: 50.0 mg/kg/injection, schedule: Q01DX001 (ip), vehicle: carboxymethylcellulose (CMC) 98 % of control | endpoint: mean survival time, dose: 100.0 mg/kg/injection, schedule: Q01DX001 (ip), vehicle: carboxymethylcellulose (CMC) 98 % of control | endpoint: mean survival time, dose: 200.0 mg/kg/injection, schedule: Q01DX001 (ip), vehicle: carboxymethylcellulose (CMC) 104 % of control | endpoint: mean survival time, dose: 400.0 mg/kg/injection, schedule: Q01DX001 (ip), vehicle: carboxymethylcellulose (CMC) 95 % of control

COC1=CC(=O)C2(C)CC=CCC2C1 (configuration not stated)
inactive: [1] 98 % of control | [2] 92 % of control | [3] 95 % of control | [4] 103 % of control | [5] 95 % of control | [6] 91 % of control

Nc1nc(N)c2nc(-c3ccc(Cl)c(Cl)c3)c(N)nc2n1
inactive: endpoint: mean survival time, dose: 12.5 mg/kg/injection, schedule: Q01DX009 (ip), vehicle: water 97 % of control | endpoint: mean survival time, dose: 25.0 mg/kg/injection, schedule: Q01DX009 (ip), vehicle: water 97 % of control | endpoint: mean survival time, dose: 50.0 mg/kg/injection, schedule: Q01DX009 (ip), vehicle: water 108 % of control | endpoint: mean survival time, dose: 100.0 mg/kg/injection, schedule: Q01DX009 (ip), vehicle: water 93 % of control

CC(C)CC(NC(=O)OCc1ccccc1)C(=O)NCCCCCCCCCCNC(=O)C(CC(C)C)NC(=O)OCc1ccccc1 (configuration not stated)
inactive: endpoint: mean survival time, dose: 10.0 mg/kg/injection, schedule: Q01DX Z (ip), vehicle: saline 96 % of control | endpoint: mean survival time, dose: 30.0 mg/kg/injection, schedule: Q01DX Z (ip), vehicle: saline 97 % of control | endpoint: mean survival time, dose: 100.0 mg/kg/injection, schedule: Q01DX Z (ip), vehicle: saline 91 % of control | endpoint: mean survival time, dose: 300.0 mg/kg/injection, schedule: Q01DX Z (ip), vehicle: saline 97 % of control

CC1NC(C)SC(C)S1 (configuration not stated)
inactive: [2] 101 % of control | [4] 98 % of control

O=[N+]([O-])c1ccc(OCCCBr)cc1
inactive: [2] 91 % of control | [4] 91 % of control | [6] 91 % of control

COc1ccc(C(=O)O)c(N)c1
inactive: [1] 95 % of control | [2] 94 % of control | [3] 92 % of control | [4] 97 % of control | [5] 101 % of control | [6] 97 % of control

CC(N)CC(=O)NO (configuration not stated)
inactive: [7] 104 % of control | [8] 104 % of control | [9] 108 % of control

COc1ccc2c(O)c(-c3ccc(OC)c(OC)c3)c(=O)oc2c1
inactive: endpoint: mean survival time, dose: 25.0 mg/kg/injection, schedule: Q01DX009 (ip), vehicle: saline with Tween-80 96 % of control | [10] 103 % of control | [1] 106 % of control

O=c1[nH]c(/C=C/C=C/c2ccccc2)c([N+](=O)[O-])c(=O)[nH]1
inactive: endpoint: mean survival time, dose: 50.0 mg/kg/injection, schedule: Q04DX002 (ip), vehicle: Klucel (hydroxypropylcellulose) (HPC) 98 % of control | endpoint: mean survival time, dose: 100.0 mg/kg/injection, schedule: Q04DX002 (ip), vehicle: Klucel (hydroxypropylcellulose) (HPC) 91 % of control and 94 % of control | endpoint: mean survival time, dose: 200.0 mg/kg/injection, schedule: Q04DX002 (ip), vehicle: Klucel (hydroxypropylcellulose) (HPC) 88 % of control and 94 % of control | endpoint: mean survival time, dose: 400.0 mg/kg/injection, schedule: Q04DX002 (ip), vehicle: Klucel (hydroxypropylcellulose) (HPC) 98 % of control

CC(=O)OCCC/C(=C\c1ccc(Cl)cc1)[N+](=O)[O-]
inactive: [7] 100 % of control | [8] 102 % of control | [9] 98 % of control

O=[N+]([O-])c1ccc(C[n+]2ccccc2)cc1
inactive: endpoint: mean survival time, dose: 5.0 mg/kg/injection, schedule: Q01DX009 (ip), vehicle: saline 87 % of control | endpoint: mean survival time, dose: 5.0 mg/kg/injection, schedule: Q04DX003 (ip), vehicle: saline 104 % of control | endpoint: mean survival time, dose: 10.0 mg/kg/injection, schedule: Q01DX009 (ip), vehicle: saline 90 % of control | endpoint: mean survival time, dose: 10.0 mg/kg/injection, schedule: Q04DX003 (ip), vehicle: saline 108 % of control | endpoint: mean survival time, dose: 20.0 mg/kg/injection, schedule: Q01DX009 (ip), vehicle: saline 95 % of control | endpoint: mean survival time, dose: 20.0 mg/kg/injection, schedule: Q04DX003 (ip), vehicle: saline 100 % of control

CCOC(=O)c1ccc(OCC(=O)Nc2ccccc2)cc1
inactive: [1] 97 % of control | [3] 96 % of control | [5] 103 % of control

CCSc1ncc(Br)c(Sc2nc(N)nc3nc[nH]c23)n1
active: endpoint: mean survival time, dose: 6.25 mg/kg/injection, schedule: Q01DX Z (ip), vehicle: carboxymethylcellulose (CMC) 154 % of control
inactive: endpoint: mean survival time, dose: 12.5 mg/kg/injection, schedule: Q01DX Z (ip), vehicle: carboxymethylcellulose (CMC) 100 % of control | endpoint: mean survival time, dose: 25.0 mg/kg/injection, schedule: Q01DX Z (ip), vehicle: carboxymethylcellulose (CMC) 98 % of control | endpoint: mean survival time, dose: 50.0 mg/kg/injection, schedule: Q01DX Z (ip), vehicle: carboxymethylcellulose (CMC) 87 % of control

CN(C)N=Nc1cccc(NC(N)=O)c1
inactive: endpoint: mean survival time, dose: 19.75 mg/kg/injection, schedule: Q01DX009 (ip), vehicle: Klucel (hydroxypropylcellulose) (HPC) 114 % of control | endpoint: mean survival time, dose: 79.0 mg/kg/injection, schedule: Q01DX009 (ip), vehicle: Klucel (hydroxypropylcellulose) (HPC) 87 % of control

O=C(NC(=S)N1CCCC1)c1ccccc1
inactive: [10] 101 % of control | [1] 103 % of control | [3] 106 % of control

Cc1cccc(C)c1NC(=O)c1ccccc1Cl
inactive: [2] 98 % of control | [4] 97 % of control | [6] 89 % of control

NCCc1c[nH]c2ccccc12 (tested in a mixture with another compound)
inactive: [2] 97 % of control | [4] 101 % of control | [6] 94 % of control

CN(C)C(=S)Oc1c(S(=O)(=O)F)ccc(Cl)c1Cl
inactive: [11] 91 % of control | [12] 91 % of control | [13] 97 % of control

COC(=O)C1(C)CCCC2(C)C3CCC(C)(CCOC(C)=O)CC3C(OC(C)=O)CC12 (configuration not stated)
inactive: [14] 90 % of control

COc1ccc(C2=N/C(=C\c3ccccc3)C(=O)O2)cc1
inactive: [1] 96 % of control | [2] 93 % of control | [3] 90 % of control | [4] 92 % of control | [5] 98 % of control | [6] 89 % of control

O=C(Nc1ccccc1)Oc1c(Cl)cc(Cl)c2ccccc12
inactive: [11] 88 % of control | [12] 88 % of control | [13] 88 % of control

CO/N=C/[C@@H](CO)O[C@H](/C=N/OC)n1cnc2c(N)ncnc21
inactive: endpoint: median survival time, dose: 12.5 mg/kg/injection, schedule: Q01DX005 (ip), vehicle: distilled water + Tween-80 97 % of control | endpoint: median survival time, dose: 25.0 mg/kg/injection, schedule: Q01DX005 (ip), vehicle: distilled water + Tween-80 100 % of control | endpoint: median survival time, dose: 50.0 mg/kg/injection, schedule: Q01DX005 (ip), vehicle: distilled water + Tween-80 97 % of control | endpoint: median survival time, dose: 100.0 mg/kg/injection, schedule: Q01DX005 (ip), vehicle: distilled water + Tween-80 96 % of control | endpoint: median survival time, dose: 200.0 mg/kg/injection, schedule: Q01DX005 (ip), vehicle: distilled water + Tween-80 100 % of control

O=C(Nc1ccc2ccccc2c1)OC1CCS(=O)(=O)C1 (configuration not stated)
inactive: endpoint: mean survival time, dose: 75.0 mg/kg/injection, schedule: Q04DX003 (ip), vehicle: saline 102 % of control | endpoint: mean survival time, dose: 150.0 mg/kg/injection, schedule: Q04DX003 (ip), vehicle: saline 102 % of control | endpoint: mean survival time, dose: 300.0 mg/kg/injection, schedule: Q04DX003 (ip), vehicle: saline 98 % of control

COc1ccc(OC)c(C(=O)CC(O)(C(F)(F)F)C(F)(F)F)c1
inactive: [1] 97 % of control | [3] 101 % of control | [5] 97 % of control

COC(=O)C1=C(N)CCc2ccccc21
inactive: [1] 91 % of control | [3] 96 % of control | [5] 96 % of control

O=C(Cc1ccccn1)Cc1ccccn1
inactive: [14] 106 % of control | [11] 100 % of control | endpoint: mean survival time, dose: 200.0 mg/kg/injection, schedule: Q01DX001 (ip), vehicle: saline with Tween-80 96 % of control | [12] 100 % of control | endpoint: mean survival time, dose: 400.0 mg/kg/injection, schedule: Q01DX001 (ip), vehicle: saline with Tween-80 106 % of control | [13] 104 % of control

CCOC(=O)C(F)(C(=O)OCC)[N+](=O)[O-]
inactive: endpoint: mean survival time, dose: 50.0 mg/kg/injection, schedule: Q04DX003 (ip), vehicle: saline 102 % of control | [7] 101 % of control | endpoint: mean survival time, dose: 100.0 mg/kg/injection, schedule: Q04DX003 (ip), vehicle: saline 100 % of control | [8] 104 % of control | endpoint: mean survival time, dose: 200.0 mg/kg/injection, schedule: Q04DX003 (ip), vehicle: saline 88 % of control

Nc1nc(N)nc(CBr)n1
inactive: endpoint: mean survival time, dose: 3.13 mg/kg/injection, schedule: Q01DX001 (ip), vehicle: Klucel (hydroxypropylcellulose) (HPC) 98 % of control | endpoint: mean survival time, dose: 6.25 mg/kg/injection, schedule: Q01DX001 (ip), vehicle: Klucel (hydroxypropylcellulose) (HPC) 98 % of control | endpoint: mean survival time, dose: 12.5 mg/kg/injection, schedule: Q01DX001 (ip), vehicle: Klucel (hydroxypropylcellulose) (HPC) 88 % of control
